Measured values published in patent US20240316069A1, “METHODS OF TREATING MULTIPLE SCLEROSIS” (ASCENTAGE PHARMA (SUZHOU) CO., LTD., priority 2020, published 2024).
“Also recorded” adds a separate entry of the source.

Key:
[1] = system: MOG35-55 induced experimental autoimmune encephalomyelitis (EAE) model in C57BL/6 mice; test: Clinical scores in MOG35-55 induced EAE model; type: in vivo
[2] = system: MOG35-55 induced experimental autoimmune encephalomyelitis (EAE) model in C57BL/6 mice; test: Histopathologic assessment of spinal cord, H&E staining (inflammation) in EAE model; type: in vivo; settings: for H&E staining score: day 21, spinal cord, scoring 0 to 4
Method: (§1) The mice were anesthetized with isoflurane and immunized with 300 μg MOG 35-55 peptide emulsified (1:1) in […] Freund's adjuvant with 600 μg Mycobacterium tuberculosis. Each mouse received 0.05 ml emulsion (s.c.) at four sites (back shoulder and tail root). The mice were further intraperitoneally injected with 250 μL pertussis toxin (1 μg/mL) at 0 h and 48 h post immunization. The day when MOG 35-55 peptide was injected was set as day 1.
(§2) Mice in Group 1 were treated with vehicle for 20 days (po, qd, from day 1-20). Mice in Group 2, Group 3 and Group 4 were treated with 100 mg/kg Compound 4 for 20 days (po, qd, from day 1-20), 14 days (po, qd, from day 7-20) and 7 days (po, qd, from day 14-20) respectively. FTY720 was used as positive control which was orally administered to mice in Group 5 for 20 days (qd, from day 1-20). The protocols and procedures involving the care and use of animals were approved by the Institutional Animal Care and Use Committee (IACUC) at Bioduro (Shanghai, China). The information of each group is as follows.
(§3) At the end of the study (day 21), all the animals were sacrificed by CO2, and the spinal cords were collected and fixed in 10% formalin for pathological analysis (H&E and LFB staining). The histopathological score was evaluated microscopically in a blinded manner.
The inflammation of spinal cord was evaluated by H&E staining using a scoring system from 0 to 4: 0, no inflammatory cell infiltration; 1, inflammatory cell infiltration is limited to perivascular and […]; 2, small amount of inflammatory cell infiltration in the spinal cord; 3, medium number of inflammatory cell infiltration in the spinal cord; 4, large number of inflammatory cell infiltration in the spinal cord.

[3] = system: peripheral blood mononuclear cell (PBMC); test: Flow cytometry of PBMC lymphocyte subtypes in EAE model; type: in vivo, C57BL/6 mice; settings: 100 mg/kg; day 21
[4] = system: MOG35-55 induced experimental autoimmune encephalomyelitis (EAE) model in C57BL/6 mice; test: Histopathologic assessment of spinal cord, LFB staining (demyelination) in EAE model; type: in vivo; settings: for LFB staining score: day 21, spinal cord, scoring 0 to 4
Method: as §1, §2, §3
The structure and morphology of spinal cord was evaluated by LFB staining using a scoring system from 0 to 4: 0 represents for no demyelination; 1, a small range of demyelination; 2, 2-3 small range of demyelination; 3, 1-2 large range of demyelination; 4, large-scale demyelination involves more than 20% of white matter areas.

[5] = clinical application; cited from earlier work
[6] = 100 mg/kg po qd, 7 days (d14-d20)
[7] = 100 mg/kg po qd, 14 days (d7-d20)
[8] = 100 mg/kg po qd, 20 days (d1-d20)

SMILES | clinical score ([1]; 100 mg/kg po qd, 14 days (d7-d20, Group 3), end of the study (day 21), scoring 0 to 5) | clinical score of EAE (result in words) ([1]; 100 mg/kg po qd, either of the three regimens (20, 14, 7 days)) | H&E staining score [2, 6] | H&E staining score [2, 7] | H&E staining score [2, 8] | H&E staining scores (result in words) ([2]; FIG. 3 legend, regimen not stated) | number of B lymphocytes (CD45+CD3-B220+) in the PBMC [3] | number of CD4+ T lymphocytes (CD45+CD3+CD4+) in the PBMC [3] | number of CD8+ T lymphocytes (CD45+CD3+CD8+) in the PBMC [3] | number of T lymphocytes (CD45+CD3+) in the PBMC [3] | number of double negative T lymphocytes (CD45+CD3+CD4-CD8−) in the PBMC [3] | number of leukocytes (CD45+) in the PBMC [3] | LFB staining score [4, 6] | LFB staining score [4, 7] | LFB staining score [4, 8] | LFB staining scores (result in words) ([4]; FIG. 2 legend, regimen not stated) | symptoms of multiple sclerosis (clinical score, result in words) ([1]; 1 mpk po qd x 20 d (d1-d20), Group 5, entire experiment) | H&E staining score ([2]; 1 mpk po qd x 20 d (d1-d20)) | cardiovascular toxicity [5] | LFB staining score ([4]; 1 mpk po qd x 20 d (d1-d20))
O=C(NS(=O)(=O)c1ccc(NC[C@H]2COCCO2)c([N+](=O)[O-])c1)c1ccc(N2CCN(CC3=C(c4ccc(Cl)cc4)CC4(CCC4)CC3)CC2)cc1Oc1cnc2[nH]ccc2c1 [Compound 4, (S)-N-((4-(((1,4-dioxan-2-yl)methyl)amino)-3-nitrophenyl)sulfonyl)-2-((1H-pyrrolo[2,3-b]pyridin-5-yl)oxy)-4-(4-((6-(4-chlorophenyl)spiro[3.5]non-6-en-7-yl)methyl)piperazin-1-yl)benzamide] | 2.00±0.58 | significantly reducing the clinical score of EAE; also recorded: reduced the clinical scores | 2.10±0.41 | 1.11±0.33 | 2.00±0.39 | reduced the H&E staining scores | significantly reduced | significantly reduced | significantly reduced | significantly reduced | significantly reduced | significantly reduced | 1.30±0.37 | 1.33±0.44 | 1.80±0.29 | reduced the LFB staining scores | – | – | – | –
CCCCCCCCc1ccc(CCC(N)(CO)CO)cc1.Cl [FTY720, reference compound] | – | – | – | – | – | – | – | – | – | – | – | – | – | – | – | – | no mice developing symptoms of multiple sclerosis | 0 | obvious cardiovascular toxicity | 0
